Measured values reported in patent US20100119506A1, “Effectors of PAR-2 Activation and Their Use in the Modulation of Inflammation” (BOEHRINGER INGELHEIM INTERNATIONAL GMBH, priority 2008, published 2010).

System: trans vivo delayed type hypersensitivity (DTH)
Assay: Trans vivo DTH model (footpad swelling)
Type: in vivo, mouse
Settings: 10 mg/kg; 24 hours after PBMCs and TT
Experimental: FIGS. 8A and 8B show the ability of anti-PAR-2 antibodies Par-B (FIG. 8A) and Par-D (FIG. 8B) to inhibit trans vivo DTH. Shown are the changes in paw thickness after injection of human peripheral blood mononuclear cells alone (PBMC) or after injection of PBMCs and […] (TT). Mice were pretreated (ip at −3 hours) with PBS, hu IgG4 (20 mg/kg), or anti-PAR-2 antibody. Percent inhibition is shown at top of the bars. *p<0.05 as compared to PBS.
The trans vivo delayed type hypersensitivity (DTH) is a validated model of human T cell mediated inflammation in mice (Warnecke, G. et al. (2007) Transplantation 84(3):392-399; Pelletier, R. P. et al. (Mar. 28, 2007, Epub) Hum. Immunol. 68(6):514-522; Carrodeguas, L. et al. (1999) Hum. Immunol. 60(8):640-651). In this assay, human PBMCs from tetanus-sensitized donors are isolated and co-injected with tetanus toxoid (TT) into the mouse footpad. The swelling response that develops in the footpad is measured at 24 hours. This swelling response is dependent on antigen-specific activation of the human T cells as well as on the inflammation mediated by mouse cells.
Shown in FIG. 8A and FIG. 8B, are the changes in footpad thickness 24 hours after injection of PBMCs and TT.

C[C@@H]1C[C@H]2[C@@H]3CCC4=CC(=O)C=C[C@]4(C)[C@@]3(F)[C@@H](O)C[C@]2(C)[C@@]1(O)C(=O)CO [dexamethasone, reference compound]
inhibition of footpad swelling response: approximately 80%
